Measurements published in US4086196A, “Parathyroid hormone” (Armour Pharmaceutical Company, priority 1975, dated 1978).
Values belong to the molecule of their own block, whether it stands above or below them.

Assays:
[1] = system: serum calcium in the chick; experiment: In vivo chick hypercalcemia bioassay; details: mean potency with 95% confidence limits; intravenous injection; against house standard Sephadex-BPTH calibrated to MRC Standard A
Method: (§1) In vitro bioassays based on the activation of adenylate cyclase in rat renal cortical homogenates were carried out by the procedure of Marcus and Aurbach (Endocrinology, (1969), 85, 801-810). In vivo bioassays were performed by the method of Parsons, Reit and Robinson (Endocrinology, (1973), 92, 454-462), a procedure based on increase in the serum calcium in the chick after intravenous injection. A house standard of highly purified bovine parathyroid hormone ("Sephadex-BPTH") calibrated against Medical Research Council Standard A (National Institute for Medical Research, London, England) was used for both in vivo and in vitro assays. The biological activities of the synthetic HPTH-(1-34), and the native HPTH-(1-84)-peptides in the in vitro rat kidney adenylate cyclase assay and the in vivo chick hypercalcemia assay are shown in Table 2. Included for comparison are the corresponding data on the native bovine-(1-84) and the synthetic bovine-(1-34) peptides, as well as the analogue [Ala^1 ]-HPTH-(1-34).

[2] = system: adenylate cyclase in rat renal cortical homogenates; experiment: In vitro rat kidney adenylate cyclase bioassay; format: biochemical; details: mean potency with 95% confidence limits; against house standard Sephadex-BPTH calibrated to MRC Standard A
Method: as §1

[3] = bioassay systems in vivo and in vitro; cited from earlier work

- In vitro Rat kidney adenylate cyclase [2]: 1030 (930-1140) MRCU/mg
Molecule: CC[C@H](C)[C@H](NC(=O)[C@H](CCC(=O)O)NC(=O)[C@H](CO)NC(=O)[C@@H](NC(=O)[C@@H](N)CO)C(C)C)C(=O)N[C@@H](CCC(N)=O)C(=O)N[C@@H](CC(C)C)C(=O)N[C@@H](CCSC)C(=O)N[C@@H](Cc1c[nH]cn1)C(=O)N[C@@H](CC(N)=O)C(=O)N[C@@H](CC(C)C)C(=O)NCC(=O)N[C@@H](CCCCN)C(=O)N[C@@H](Cc1c[nH]cn1)C(=O)N[C@@H](CC(C)C)C(=O)N[C@@H](CC(N)=O)C(=O)N[C@@H](CO)C(=O)N[C@@H](CCSC)C(=O)N[C@@H](CCC(=O)O)C(=O)N[C@@H](CCCNC(=N)N)C(=O)N[C@H](C(=O)N[C@@H](CCC(=O)O)C(=O)N[C@@H](Cc1c[nH]c2ccccc12)C(=O)N[C@@H](CC(C)C)C(=O)N[C@@H](CCCNC(=N)N)C(=O)N[C@@H](CCCCN)C(=O)N[C@@H](CCCCN)C(=O)N[C@@H](CC(C)C)C(=O)N[C@@H](CCC(N)=O)C(=O)N[C@@H](CC(=O)O)C(=O)N[C@H](C(=O)N[C@@H](Cc1c[nH]cn1)C(=O)N[C@@H](CC(N)=O)C(=O)N[C@@H](Cc1ccccc1)C(=O)O)C(C)C)C(C)C [HPTH-(1-34)]
- In vivo Chick hypercalcemia [1]: 7400(5700-9700) MRCU/mg

- In vitro Rat kidney adenylate cyclase [2]: 4085(3550-4700) MRCU/mg
Molecule: CC[C@H](C)[C@H](NC(=O)[C@H](CCC(=O)O)NC(=O)[C@H](CO)NC(=O)[C@@H](NC(=O)[C@H](C)N)C(C)C)C(=O)N[C@@H](CCC(N)=O)C(=O)N[C@@H](CC(C)C)C(=O)N[C@@H](CCSC)C(=O)N[C@@H](Cc1c[nH]cn1)C(=O)N[C@@H](CC(N)=O)C(=O)N[C@@H](CC(C)C)C(=O)NCC(=O)N[C@@H](CCCCN)C(=O)N[C@@H](Cc1c[nH]cn1)C(=O)N[C@@H](CC(C)C)C(=O)N[C@@H](CC(N)=O)C(=O)N[C@@H](CO)C(=O)N[C@@H](CCSC)C(=O)N[C@@H](CCC(=O)O)C(=O)N[C@@H](CCCNC(=N)N)C(=O)N[C@H](C(=O)N[C@@H](CCC(=O)O)C(=O)N[C@@H](Cc1c[nH]c2ccccc12)C(=O)N[C@@H](CC(C)C)C(=O)N[C@@H](CCCNC(=N)N)C(=O)N[C@@H](CCCCN)C(=O)N[C@@H](CCCCN)C(=O)N[C@@H](CC(C)C)C(=O)N[C@@H](CCC(N)=O)C(=O)N[C@@H](CC(=O)O)C(=O)N[C@H](C(=O)N[C@@H](Cc1c[nH]cn1)C(=O)N[C@@H](CC(N)=O)C(=O)N[C@@H](Cc1ccccc1)C(=O)O)C(C)C)C(C)C [[Ala^1]-HPTH-(1-34)]
- In vivo Chick hypercalcemia [1]: 4600(3500-6000) MRCU/mg

- In vitro Rat kidney adenylate cyclase [2]: 5400(3900-8000) MRCU/mg
Molecule: BPTH-(1-34): synthetic peptide corresponding to 1-34 residues of bovine parathyroid hormone [reference compound]
- potency relative to whole bovine parathyroid hormone [3]: equipotent
- In vivo Chick hypercalcemia [1]: 7700(5200-11100) MRCU/mg

- In vitro Rat kidney adenylate cyclase [2]: 350 (275-425) MRCU/mg
Molecule: HPTH-(1-84) (native): native human parathyroid hormone (1-84)

- In vitro Rat kidney adenylate cyclase [2]: 3000(2500-4000) MRCU/mg
B1: BPTH-(1-84) (native): native bovine parathyroid hormone (1-84) (protein, UniProt P01268 32-115, looked up)
Parathyroid hormone: AVSEIQFMHNLGKHLSSMERVEWLRKKLQDVHNFVALGASIAYRDGSSQRPRKKEDNVLVESHQKSLGEADKADVDVLIKAKPQ
modifications: Parathyroid hormone
- In vivo Chick hypercalcemia [1]: 2500(2100-4000) MRCU/mg
